Our source for the EC50 and MCC values is patent publication US6288091A, “Antiherpes virus compounds and methods for their preparation and use” (Boehringer Ingelheim Ltd., priority 1999, dated 2001).

In one data set the test system is HSV-1 strain F or KOS. As to the kind of experiment: Inhibition of herpes simplex virus (HSV-1) replication in cell culture (BHK-21 cells, glycoprotein C ELISA). Type of data set: cell-based. In short, it runs like this:
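Replication readout: ELISA for HSV-1 late glycoprotein C (mAb C11, peroxidase-OPD, 450 nm) on glutaraldehyde-fixed cells. Monolayers (~50,000 cells/well) were infected with strain F or KOS (MOI 0.05 PFU/cell), then incubated 24 h at 37° with compound in 2% FBS α-MEM. EC50 derived from % inhibition.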
For orientation: ELISA stands for enzyme-linked immunosorbent assay.

Data set [1] can be described thus: Inhibition of HCMV replication, plaque reduction assay (PRA, Hs-68 cells). The format is cell-based, Human Cytomegalovirus (HCMV). Conditions: human, Group 1 Table 5 entries, read-out: Cytotoxic at this concentration (footnote *, PRA CMV). In short, it runs like this:
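Hs-68 monolayers (80–90% confluent) were infected with ~50 PFU HCMV AD169 for 2 h at 37°, then given compound in DMEM/5% inactivated FBS, refreshed after 4 days and kept 4 more days. Plaques were counted after formaldehyde fixation and crystal violet staining. EC50 derives from percent plaque reduction versus untreated wells.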

The mark [2] stands for this setting: Human alphaherpesvirus 1, BHK-21, Group 2 Table 1 entries.
Setting [3] is: Human alphaherpesvirus 1, BHK-21, Group 1 Table 6 entries.
[4] abbreviates: Human alphaherpesvirus 1, BHK-21, Group 1 Table 5 entries.

Molecules are shown by their SMILES.

Consider `CCCCN(CCCC)C(=O)C(=O)Nc1ccc(-c2csc(N)n2)cc1` [Example 1, N-{4-(2-Amino-4-thiazolyl)phenyl}-N',N'-dibutylethanediamide], for which the half-maximal effective concentration (EC50) (in general, the concentration that produces a half-maximal response) with HSV-1 strain F or KOS (Human alphaherpesvirus 1, BHK-21, Group 2 Table 2 entries) was determined as 2900 nM.

In turn, `CCCCN(CCCC)C(=O)Nc1ccc(-c2csc(N)n2)cc1` [Example 1, N-{4-(2-Amino-4-thiazolyl)phenyl}-N,N-dibutylurea] registered an EC50 in the data set with HSV-1 strain F or KOS (setting [2]) of 800 nM.

Molecule `Nc1nc(-c2ccc(NC(=O)[C@@H]3CCC(=O)N3Cc3ccccc3)cc2)cs1` [Example 2] returned an EC50 with HSV-1 strain F or KOS (setting [3]) of 2600 nM.

Consider `Nc1nc(-c2ccc(NC(=O)[C@H]3CCC(=O)N3CC3CCCCC3)cc2)cs1` [Example 3], for which, in the data set on HSV-1 strain F or KOS (setting [3]), the EC50 came out at 2100 nM.

In the data set with HSV-1 strain F or KOS (setting [2]), `CN(CCc1ccccn1)C(=O)Nc1ccc(-c2csc(N)n2)cc1` [Example 4] came in with a half-maximal effective concentration (EC50) of 1400 nM.

In turn, `Nc1nc(-c2ccc(NC(=O)[C@@H]3CCCN3C(=O)c3ccccc3)cc2)cs1` [Example 5] displayed an EC50 in the data set with HSV-1 strain F or KOS (setting [3]) of 170 nM.

Turning to `Nc1nc(-c2ccc(NC(=O)[C@@H]3CCCN3C(=O)C3CCCCC3)cc2)cs1` [Example 6], the EC50 in the data set on HSV-1 strain F or KOS (setting [3]) is 16 nM.

Consider `CC(C)(C)OC(=O)N1CCC[C@@H]1C(=O)Nc1ccc(-c2csc(N)n2)cc1` [Example 8], for which, in the data set on HSV-1 strain F or KOS (setting [3]), a half-maximal effect (EC50) was put at 1800 nM.

For `Nc1nc(-c2ccc(NC(=O)[C@H]3CCCN3C(=O)c3ccccc3)cc2)cs1` [Example 9], in the data set with HSV-1 strain F or KOS (setting [3]), the concentration for a half-maximal effect (EC50) came out at 590 nM.

In turn, `CN(C(=O)OC(C)(C)C)[C@@H](Cc1ccccc1)C(=O)Nc1ccc(-c2csc(N)n2)cc1` [Example 10] came in with an EC50 in the data set on HSV-1 strain F or KOS (setting [4]) of 59 nM.

With `Nc1nc(-c2ccc(NC(=O)[C@H]3CCCN3C(=O)C3CCCCC3)cc2)cs1` [Example 10], the EC50 with HSV-1 strain F or KOS (setting [3]) was 25 nM.

Take `CCCC(CCC)NC(=O)Nc1ccc(-c2csc(N)n2)cc1` [Example 11]: the EC50 with HSV-1 strain F or KOS (setting [2]) came out at 8000 nM.

Turning to `Nc1nc(-c2ccc(NC(=O)[C@H](Cc3ccccc3)N(Cc3ccccc3)C(=O)C3CCCCC3)cc2)cs1` [Example 11], the half-maximal effective concentration (EC50) in the data set on HSV-1 strain F or KOS (setting [4]) was 510 nM.

Turning to `CC(C)(C)NC(=O)Nc1ccc(-c2csc(N)n2)cc1` [Example 12], the EC50 with HSV-1 strain F or KOS (setting [2]) is 4400 nM.

Molecule `CN(CCc1ccccn1)C(=O)Nc1ccc(-c2csc(NC(=O)OC(C)(C)C)n2)cc1` [Example 14] returned an EC50 with HSV-1 strain F or KOS (setting [2]) of 3200 nM.

As for `CCCCN(CCCC)C(=O)Nc1ccc(-c2csc(NC(=O)OC(C)(C)C)n2)cc1` [Example 15], the 50% effective concentration (EC50) in the data set on HSV-1 strain F or KOS (setting [2]) was over 6000 nM.

For `CC(C)(C)CC(=O)N[C@@H](Cc1ccccc1)C(=O)Nc1ccc(-c2csc(N)n2)cc1` [Example 19], in the data set on HSV-1 strain F or KOS (setting [4]), the EC50 turned out to be 40 nM. In data set [1], the MCC at 192 h worked out at 21 µM.

For `Nc1nc(-c2ccc(NC(=O)[C@H](Cc3ccccc3)NS(=O)(=O)N3CCOCC3)cc2)cs1` [Example 25], the EC50 in the data set on HSV-1 strain F or KOS (setting [4]) turned out to be 100 nM.
